Measured values published in the supplement of paper PMC8967900.

What was measured:
Assay in all cases: selective drug sensitivity score (sDSS, relative to normal bone marrow) (sDSS (score)); higher = more potent and effective on the cell line relative to normal bone marrow cells
Settings in all cases: 72 h
[1] = tested on: 697
[2] = tested on: CCRF-HSB2
[3] = tested on: COG-LL-319h
[4] = tested on: COG-LL-332h
[5] = tested on: COG-LL-402h
[6] = tested on: DND-41
[7] = tested on: HPB-ALL
[8] = tested on: JURKAT
[9] = tested on: KASUMI-10
[10] = tested on: LC4-1
[11] = tested on: MHH-CALL-3
[12] = tested on: MOLT-14
[13] = tested on: MOLT-16
[14] = tested on: MOLT-4
[15] = tested on: NALL-1
[16] = tested on: P12-ICHIKAWA
[17] = tested on: PF-382
[18] = tested on: RCH-ACV
[19] = tested on: REH
[20] = tested on: TANOUE
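Further: ALL cell lines in 384-well plates, five doses spanning 10,000-fold, each plate scaled between vehicle and 100 µmol/L benzalkonium chloride controls, sDSS an adapted area-under-curve metric.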

Compound	selective drug sensitivity score [1]	selective drug sensitivity score [2]	selective drug sensitivity score [3]	selective drug sensitivity score [4]	selective drug sensitivity score [5]	selective drug sensitivity score [6]	selective drug sensitivity score [7]	selective drug sensitivity score [8]	selective drug sensitivity score [9]	selective drug sensitivity score [10]	selective drug sensitivity score [11]	selective drug sensitivity score [12]	selective drug sensitivity score [13]	selective drug sensitivity score [14]	selective drug sensitivity score [15]	selective drug sensitivity score [16]	selective drug sensitivity score [17]	selective drug sensitivity score [18]	selective drug sensitivity score [19]	selective drug sensitivity score [20]
Cc1sc2c(c1C)C(c1ccc(Cl)cc1)=N[C@@H](CC(=O)OC(C)(C)C)c1nnc(C)n1-2 [JQ1] (top concentration 10000 nM)	9.72	0.72	12.1	-3.08	8.12	2.52	1.32	-0.48	7.22	5.02	16	-0.58	8.82	-4.28	0.42	5.12	5.22	12.3	-3.58	-7.48
CCNC(=O)c1noc(-c2cc(C(C)C)c(O)cc2O)c1-c1ccc(CN2CCOCC2)cc1 [Luminespib] (top concentration 1000 nM)	-1.5	6.7	3.1	7.1	4.1	-2	-2.5	-5.5	4.4	-1.4	8.3	-0.6	4.6	-1.1	-5.8	-5	-1.4	3.6	-1.5	-10.5
O=C(c1cccc(Cl)c1F)N1CCN(Cc2cccc(Nc3nccs3)n2)CC1 [MK-8745] (top concentration 10000 nM)	8.9	14.1	14.3	14	14.1	5.5	7	9.8	11.2	11.5	7.1	7.8	12.2	11.8	12.4	11.3	8.5	9.7	11.6	-0.8
Cc1ccc(NC(=O)c2ccc(CN3CCN(C)CC3)cc2)cc1Nc1nc(-c2cccnc2)cs1 [Masitinib] (top concentration 10000 nM)	1.32	6.02	-3.88	5.52	-1.48	-0.28	-4.18	0.92	-3.48	-2.18	-4.38	1.12	3.42	-0.38	-4.38	0.32	1.42	0.02	-0.98	-4.38
CCN(CC)CCCC(C)Nc1c2ccc(Cl)cc2nc2ccc(OC)cc12 (stereo not given) [Mepacrine] (top concentration 50000 nM)	-3.7	-4.8	-2.9	-0.4	2.7	-5.1	-6.8	-7.7	0.6	-4	-1.2	-0.7	-0.8	-0.6	-10	-7.8	-4.6	-4.5	-3.3	-10.8
COc1ccc(-c2ccc3ncc4c(c3c2)n(-c2ccc(N3CCNCC3)c(C(F)(F)F)c2)c(=O)n4C)cn1 [NVP-BGT226] (top concentration 1000 nM)	14.2	5.82	0.72	5.02	5.92	2.12	-0.18	2.82	-0.18	2.22	0.62	1.52	12.2	5.42	-2.88	2.72	6.02	20.1	8.22	-3.58
COc1nc(N)nc2c1ncn2[C@@H]1O[C@H](CO)[C@@H](O)[C@@H]1O [Nelarabine] (top concentration 10000 nM)	1.58	1.88	4.78	2.78	-2.32	8.98	-2.22	-0.12	-5.82	-7.22	-3.72	8.78	-7.22	-0.72	-10.2	4.68	-1.62	1.98	-6.32	-10.2
Cc1cn(-c2cc(NC(=O)c3ccc(C)c(Nc4nccc(-c5cccnc5)n4)c3)cc(C(F)(F)F)c2)cn1 [Nilotinib] (top concentration 10000 nM)	1.3	12.9	8.2	16.4	0	2.8	0	1.1	0	9.1	0.5	2.1	2.1	3.6	5.8	0.6	2.7	8.3	2.5	0
NC(=O)c1cccc2cn(-c3ccc(C4CCCNC4)cc3)nc12 (stereo not given) [Niraparib] (top concentration 10000 nM)	12.9	5.78	14.2	3.88	8.48	2.78	-3.32	0.38	1.58	3.38	10.7	12.8	4.78	3.58	4.08	0.68	-2.12	6.48	-0.02	-3.32
